Earlier results in US20210401736A1, “SEMI-SOLID CHEWABLE GEL CANNABINOID COMPOSITIONS AND METHODS OF MAKING AND USING THEREOF” (Seattle Gummy Company, priority 2019, published 2021).

Assays:
[1] = biological target: T1, 5-HT1A receptor (Homo sapiens, UniProt P08908)
T1 sequence (P08908 1-422): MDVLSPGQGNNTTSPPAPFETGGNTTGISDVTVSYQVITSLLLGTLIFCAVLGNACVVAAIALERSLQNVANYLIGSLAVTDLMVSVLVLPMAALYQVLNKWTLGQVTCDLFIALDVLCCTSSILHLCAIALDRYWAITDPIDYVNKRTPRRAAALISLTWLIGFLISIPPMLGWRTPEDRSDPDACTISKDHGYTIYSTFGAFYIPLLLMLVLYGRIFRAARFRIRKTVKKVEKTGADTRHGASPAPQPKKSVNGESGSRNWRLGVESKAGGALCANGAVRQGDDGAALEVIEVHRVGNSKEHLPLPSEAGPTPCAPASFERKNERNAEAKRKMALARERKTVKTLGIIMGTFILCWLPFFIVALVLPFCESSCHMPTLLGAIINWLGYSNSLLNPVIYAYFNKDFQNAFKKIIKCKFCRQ

[2] = biological target: CB1 receptor (Homo sapiens, UniProt P21554)
CB1 receptor, sequence (P21554 whole entry): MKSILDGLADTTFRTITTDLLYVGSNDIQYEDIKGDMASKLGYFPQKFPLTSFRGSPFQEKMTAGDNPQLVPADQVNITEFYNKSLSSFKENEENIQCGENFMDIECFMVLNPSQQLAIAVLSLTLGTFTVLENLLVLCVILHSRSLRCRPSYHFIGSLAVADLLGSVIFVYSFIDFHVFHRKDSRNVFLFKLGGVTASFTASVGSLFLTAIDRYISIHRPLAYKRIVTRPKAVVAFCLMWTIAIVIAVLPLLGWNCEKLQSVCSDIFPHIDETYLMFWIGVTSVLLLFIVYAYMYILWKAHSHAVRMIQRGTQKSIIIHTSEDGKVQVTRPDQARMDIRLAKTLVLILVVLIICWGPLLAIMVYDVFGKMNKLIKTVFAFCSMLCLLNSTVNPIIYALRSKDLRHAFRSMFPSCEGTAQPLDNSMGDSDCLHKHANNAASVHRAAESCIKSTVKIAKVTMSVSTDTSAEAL

[3] = tested on: alpha2-adrenergic receptor
[4] = 5 mg of CBN versus 10 mg dose of diazepam, according to studies

Q: Which “affinity, 5-HT1A receptor antagonist” value [1] does the source give for `CCCCCc1cc(O)c(C/C=C(\C)CCC=C(C)C)c(O)c1` [CBG, cannabigerol] here?
A: moderate affinity

Q: And the “affinity, CB1 receptor antagonist” value [2]?
A: low affinity

Q: And the “affinity, alpha2-adrenergic receptor agonist” value [3]?
A: high affinity

Q: What about the “solubility in polyols such as glycerol” value of the same molecule?
A: low solubility

Q: What about the solubility in water of the same molecule?
A: water insoluble

Q: With `CCCCCc1cc(O)c2c(c1)OC(C)(C)c1ccc(C)cc1-2` [CBN, cannabinol] as the molecule, how does the sedative effect [4] read?
A: as effective as 10 mg dose of diazepam

Q: With `C=C(C)[C@@H]1CCC(C)=C[C@H]1c1c(O)cc(CCCCC)cc1O` [CBD, cannabidiol, reference compound] as the molecule, how does the “solubility in polyols such as glycerol” value read?
A: low solubility

Q: What about the solubility in water of the same molecule?
A: water insoluble
